For test [1], the target named is T1, wild-type Androgen Receptor (AR-wt) (Homo sapiens, UniProt P10275).
T1 construct: expressed in transfected cells; host or cells: LNCaP AR (cs) cells with ARE firefly luciferase lentiviral construct
T1 sequence (P10275 1-920): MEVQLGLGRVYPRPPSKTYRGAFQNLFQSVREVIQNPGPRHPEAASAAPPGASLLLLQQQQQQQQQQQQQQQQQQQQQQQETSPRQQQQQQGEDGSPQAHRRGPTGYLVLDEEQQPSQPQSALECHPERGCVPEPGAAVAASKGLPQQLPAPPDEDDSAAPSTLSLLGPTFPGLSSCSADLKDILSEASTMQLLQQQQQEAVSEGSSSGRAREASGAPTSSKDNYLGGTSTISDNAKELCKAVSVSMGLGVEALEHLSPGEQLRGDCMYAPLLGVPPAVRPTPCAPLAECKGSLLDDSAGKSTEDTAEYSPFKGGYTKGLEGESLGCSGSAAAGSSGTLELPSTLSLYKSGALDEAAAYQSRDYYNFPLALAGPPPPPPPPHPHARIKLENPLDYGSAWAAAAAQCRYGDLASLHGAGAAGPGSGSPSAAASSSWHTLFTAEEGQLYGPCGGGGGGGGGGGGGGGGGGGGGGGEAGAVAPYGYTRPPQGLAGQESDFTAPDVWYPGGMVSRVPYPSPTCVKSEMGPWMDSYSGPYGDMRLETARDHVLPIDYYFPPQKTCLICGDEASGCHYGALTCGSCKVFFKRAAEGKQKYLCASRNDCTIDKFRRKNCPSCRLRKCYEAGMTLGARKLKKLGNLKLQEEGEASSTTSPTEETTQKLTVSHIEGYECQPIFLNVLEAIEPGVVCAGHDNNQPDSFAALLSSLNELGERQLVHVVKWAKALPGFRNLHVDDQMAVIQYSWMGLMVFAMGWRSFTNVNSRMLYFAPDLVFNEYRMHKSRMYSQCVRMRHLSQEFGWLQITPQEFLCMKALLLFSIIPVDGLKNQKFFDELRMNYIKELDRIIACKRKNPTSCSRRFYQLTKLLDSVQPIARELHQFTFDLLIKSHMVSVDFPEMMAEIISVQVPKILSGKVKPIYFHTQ
The test is described as follows: LNCaP-AR-wt AG: ARE luciferase reporter assay, agonist mode. In kind it is cell-based. The note with it: maximum % stimulation (agonist response), % of 1 μM R-1881 max. In general terms: Reporter assays use an easily measured gene product as a stand-in for the process of interest.

In test [2] the test system is androgen dependent signaling (androgen sensitive organs, ASO). The test is described as follows: Hershberger Assay. In kind it is in vivo, Sprague-Dawley rats. The note with it: p≤0.05, in all 5 organs. Here is the method: The effect of AR antagonists on androgen dependent signaling in vivo was assessed using the Hershberger assay. In this assay, peripubertal castrated male Sprague-Dawley rats were administered AR antagonists described herein in the presence of testosterone (0.4 mg/kg testosterone propionate) and the weights of androgen dependent organs measured. Dosing was continued for 10 days and measurements taken 24 h after the last dose. The extent of antagonism of AR and consequent inhibition of organ growth was evaluated by comparison to the castration control. Compounds of Formula (I) were dosed orally QD and an endpoint assessment made by change in weight of 5 androgen sensitive organs (ASO): Paired Cowper's Glands (CG), Seminal Vesicles with Fluids and Coagulating Glands (SVCG), Glans Penis (GP), Ventral Prostate (VP) and Levator Ani-Bulbocavernosus Complex (LABC)). According to assay guidelines, statistically significant suppression of ASO is required in 2 of 5 organs for a compound to be classified as an anti-androgen (analysis was performed by t-test/Mann-Whitney).
Compounds defined herein were administered at the indicated dose (mg/kg) and flutamide (FT), positive control, at 3 mg/kg. […]

Test [3] addresses T2, F876L mutant Androgen Receptor (AR-F876L) (Homo sapiens, UniProt P10275, F877L).
T2 construct: expressed in transfected cells; host or cells: LNCaP F876L cells with ARE firefly luciferase lentiviral construct
T2 sequence (P10275 1-920 F877L): T1 sequence (P10275 1-920) with F877L
The test is described as follows: LNCaP-AR-F876L AG: ARE luciferase reporter assay, agonist mode. In kind it is cell-based. The note with it: maximum % stimulation (agonist response), % of 1 μM R-1881 max.

The test system of another test is VCaP cells. Kind of test: Prostate Cancer Cell Viability Assay-VCaP. In kind it is cell-based. The settings on record: Homo sapiens, 120 h, 5 days incubation, CellTiter-Glo. How it is done: VCaP cells were counted and seeded into black 384-well plates with clear bottoms at a concentration of 125,000 cells per mL in phenol red-free DMEM containing 10% Charcoal Stripped Serum. 16 μL of the suspension was added per well and incubated for 48 h to allow the cells to adhere. After 48 hours, a 12 point serial semilog dilution of each compound was added to the cells in 16 μL at a final concentration of 100 μM to 0.0003 μM. The compounds of Formula (I) were also run in antagonist mode using 30 pM R1881 in which 8 μL of the compound was added to the cells followed by 8 μL of R1881. After 5 days of incubation at 37° C., 16 μL Of CellTiter-Glo (Promega) was added to the cells and the relative luminescence units (RLUs) of each well determined using the Envision. The percent stimulation and % inhibition were determined for each sample and plotted using GraphPad Prism.

A further test has as its system LNCaP F876L. The test is described as follows: LNCaP Proliferation Assay (LNCaP F876L). It is filed as cell-based. The note with it: Homo sapiens, 96 h, 4 days, normalized to 0.1 nM R1881 stimulation. How it is done:
(§1) LNCaP cells were expanded in RPMI 10% FBS in T150 flasks. The cells were dislodged with 0.25% Trypsin, washed in complete media, centrifuged (300 g, 3 min), and the supernatant aspirated. The cells were resuspended in RPMI phenol-red free media with 1% charcoal-stripped serum (CSS) and counted using a ViCELL (Beckman-Coulter). 7500 cells were added to each well of a white optical bottom 384-well plate and incubated for 2 days at 37° C. 5% CO2. Compound dilutions were prepared in RPMI CSS using 50 mM stock solutions and added to the cells either alone (agonist mode) or in combination with 0.1nM R1881 (antagonist mode). The plates were incubated for 4 days, followed by addition of CellTiter-Glo Luminescent Cell Viability kit reagent (Promega). The plates were placed on a shaker at 3000 rpm for 10 minutes and then read on an EnVision plate reader (Perkin Elmer) using Luminescence assay default settings. The data was analyzed, normalized to 0.1 nM R1881 stimulation, and plotted in GraphPad Prism.

In a further test the target is T3, GR (human) (Homo sapiens, UniProt P04150).
T3 construct: GR (human) (agonist radioligand) IM-9 cells (cytosol); endogenous in cells; host or cells: IM-9 cells (cytosol)
T3 sequence (P04150 1-777): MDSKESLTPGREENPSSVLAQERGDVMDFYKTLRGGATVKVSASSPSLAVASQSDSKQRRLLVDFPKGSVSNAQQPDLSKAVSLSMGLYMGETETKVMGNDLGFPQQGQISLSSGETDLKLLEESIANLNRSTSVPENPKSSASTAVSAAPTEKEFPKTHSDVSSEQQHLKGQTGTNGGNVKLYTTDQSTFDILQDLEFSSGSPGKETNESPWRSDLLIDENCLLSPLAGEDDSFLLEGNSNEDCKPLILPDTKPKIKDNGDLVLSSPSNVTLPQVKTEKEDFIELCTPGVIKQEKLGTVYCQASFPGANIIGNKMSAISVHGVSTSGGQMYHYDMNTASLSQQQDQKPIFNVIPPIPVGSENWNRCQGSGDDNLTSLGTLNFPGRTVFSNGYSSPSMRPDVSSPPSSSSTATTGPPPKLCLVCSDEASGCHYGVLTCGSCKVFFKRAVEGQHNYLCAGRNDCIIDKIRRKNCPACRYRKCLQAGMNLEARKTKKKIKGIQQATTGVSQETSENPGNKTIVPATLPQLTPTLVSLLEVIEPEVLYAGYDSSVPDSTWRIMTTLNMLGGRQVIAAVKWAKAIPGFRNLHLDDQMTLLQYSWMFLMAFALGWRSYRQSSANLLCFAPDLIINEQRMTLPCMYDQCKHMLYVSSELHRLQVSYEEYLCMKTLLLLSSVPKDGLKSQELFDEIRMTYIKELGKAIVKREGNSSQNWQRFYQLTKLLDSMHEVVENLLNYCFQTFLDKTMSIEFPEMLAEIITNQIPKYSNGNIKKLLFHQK
The test is described as follows: Radioligand binding to GR ([3H]dexamethasone, IM-9 cells cytosol). How it is done:
Radioligand binding assays were performed with the cell extracts and ligands as detailed below. Complete methodology is contained within the cited publications. Kd values were determined by Non-Specific Incubation Detection Method.
GR (human) (agonist radioligand) IM-9 cells (cytosol) [^3H]dexamethasone 1.5 nM 1.5 nM triamcinolone (10 μM) 6 h 4° C. Scintillation counting (Clark, A. F et al. (1996) Invest. Ophtalmol. Vis. Sci., 37: 805-813). ER (nonselective) (human) (agonist radioligand) MCF-7 cells (cytosol) [^3H]estradiol 0.4 nM 0.2 nM 17-β-estradiol (6 μM) 20 h 4° C. Scintillation counting (Parker, G. J et al.(2000) J. Biomol. Screen., 5: 77-88).
The results are expressed as a percent of control specific binding measured specific binding *100 control specific binding and as a percent inhibition of control specific binding 100-(measured specific binding*100) control specific binding obtained in the presence of compoundn.
The IC50 values (concentration causing a half-maximal inhibition of control specific binding) and Hill coefficients (nH) were determined by non-linear regression analysis of the competition curves generated with mean replicate values using Hill equation curve fitting.
The inhibition constants (Ki) were calculated using the Cheng Prusoff equation:
wherein L=concentration of radioligand in the assay, and KD=affinity of the radioligand for the receptor. […]

The subject of the next test is LNCaP WT. Kind of test: LNCaP Proliferation Assay (LNCaP WT). In kind it is cell-based. The note with it: Homo sapiens, 96 h, 4 days, normalized to 0.1 nM R1881 stimulation. How it is done:
as §1

The next test has as its target rGABA-gated Cl− channel. The test is described as follows: GABA-gated Cl Channel Antagonist Radioligand Binding Assay ([35S]-TBPS, cerebral cortex membranes). The note with it: 3 nM [35S]-TBPS. On the set-up: species or system rat. Here is the method:
GABA-gated Cl Chanel assays were performed at CEREP according to the following method. Membrane homogenates of cerebral cortex (120 μg protein) were incubated for 120 min at 22° C. with 3 nM [^35S]-TBPS in the absence or presence of the test compound in a buffer containing 50 mM Na2HPO4/KH2PO4 (pH 7.4) and 500 mM NaCl. Nonspecific binding was determined in the presence of 20 μM picrotoxinin. Following incubation, the samples were filtered rapidly under vacuum through glass fiber filters (GF/B, Packard) presoaked with 0.3% PEI and rinsed several times with ice-cold 50 mM Tris-HCl using a 96-sample cell harvester (Unifilter, Packard). The filters were dried then counted for radioactivity in a scintillation counter (Topcount, Packard) using a scintillation cocktail (Microscint 0, Packard). The results are expressed as a percent inhibition of the control radio ligand specific binding. The standard reference compound is picrotoxinin, which was tested in each experiment at several concentrations to obtain a competition curve from which its ICso was calculated. In this assay, the following representative compounds disclosed herein had recorded activities at a 10 μM single point concentration in the GABA-gated Cl-Channel Binding Assay.

As a reminder, the IC50 is the concentration that gives 50% inhibition. What is called Ki is the dissociation constant of the complex between target and ligand, obtained from inhibition or displacement. A higher Ki goes with weaker binding.

Residue numbers refer to the chain shown, from its start. “And” between values parts separate entries of the source, which are not always exact repeats. Identical values can stand only once.

`CN1CCN(CCCc2ccc(N3C(=S)N(c4cnc(C#N)c(C(F)(F)F)c4)C(=O)C34CCC4)cc2)CC1` [Cpd 43, 5-[8-[4-[3-(4-methylpiperazin-1-yl)propyl]phenyl]-5-oxo-7-thioxo-6,8-diazaspiro[3.4]octan-6-yl]-3-(trifluoromethyl)pyridine-2-carbonitrile]: the “LNCaP-AR-wt AG MAX % Stim” value in test [1] came out at 0.7%. Further, the “reduction in ASO versus TP control” value in test [2] is “significant reduction”. Moreover, the “LNCaP-AR-F876L AG MAX % Stim” value in test [3] is 0.4%.

On to `CN1CCC(Oc2ccc(N3C(=S)N(c4cnc(C#N)c(C(F)(F)F)c4)C(=O)C34CCC4)cc2)CC1` [Cpd 85, 5-[8-[4-[(1-methyl-4-piperidyl)oxy]phenyl]-5-oxo-7-thioxo-6,8-diazaspiro[3.4]octan-6-yl]-3-(trifluoromethyl)pyridine-2-carbonitrile], for which the IC50 was found to be 0.076 µM in the test on VCaP cells; 8.87 µM in the test with LNCaP F876L; 20 µM at GR (human) ([3H]-dexamethasone 1.5 nM, IM-9 cytosol); 3.29 µM with LNCaP WT; 13 µM at rGABA-gated Cl− channel. For the same compound, at GR (human) (Cheng Prusoff, [3H]-dexamethasone), the Ki amounted to 9.9 µM. Also, the “% inhibition @ 10 μM” value in the test with rGABA-gated Cl− channel (10 μM single point) was 42% and 49%.

Source of the values: patent US20190209539A1, “THIOHYDANTOIN ANDROGEN RECEPTOR ANTAGONISTS FOR THE TREATMENT OF CANCER” (Janssen Pharmaceutica NV, priority 2016, published 2019).
